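Following 48 hours of exposure in 96-well plates, responses at five concentrations were used to interpolate endpoints linearly. Here, GI50 denotes the concentration required for 50% inhibition of growth. TGI marks complete inhibition of growth.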
Key:
Test in all cases: growth of human tumour cells (NCI), 48 h
CAKI-1 renal = tested on: CAKI-1 renal
NCI-H23 lung = tested on: NCI-H23 lung
SK-OV-3 ovarian = tested on: SK-OV-3 ovarian
NCI-H226 lung = tested on: NCI-H226 lung
ACHN renal = tested on: ACHN renal
OVCAR-4 ovarian = tested on: OVCAR-4 ovarian
MDA-MB-435 = tested on: MDA-MB-435
786-0 renal = tested on: 786-0 renal
HCT-15 colon = tested on: HCT-15 colon
K-562 leukemia = tested on: K-562 leukemia
SF-268 CNS = tested on: SF-268 CNS
SW-620 colon = tested on: SW-620 colon
NCI-H522 lung = tested on: NCI-H522 lung
U251 CNS = tested on: U251 CNS
HCC-2998 colon = tested on: HCC-2998 colon
OVCAR-3 ovarian = tested on: OVCAR-3 ovarian
A549 NSCLC = tested on: A549 NSCLC
RXF 393 renal = tested on: RXF 393 renal
MDA-MB-231 breast = tested on: MDA-MB-231 breast
UACC-257 melanoma = tested on: UACC-257 melanoma
HOP-62 NSCLC = tested on: HOP-62 NSCLC
MALME-3M melanoma = tested on: MALME-3M melanoma
HT29 colon = tested on: HT29 colon
BT-549 breast = tested on: BT-549 breast
LOX IMVI melanoma = tested on: LOX IMVI melanoma
CCRF-CEM leukemia = tested on: CCRF-CEM leukemia
SN12C renal = tested on: SN12C renal
DU-145 prostate = tested on: DU-145 prostate
SK-MEL-2 melanoma = tested on: SK-MEL-2 melanoma

COc1cc(/C=C/C(=O)c2ccc(Nc3nc(Nc4ccc(F)cc4)nc(Nc4ccc(Cl)cc4)n3)cc2)cc(OC)c1OC
GI50 (CAKI-1 renal): > 100 µM
TGI (CAKI-1 renal): > 100 µM
GI50 (NCI-H23 lung): 3.99 µM
TGI (NCI-H23 lung): 20.7 µM
GI50 (SK-OV-3 ovarian): 46.8 µM
TGI (SK-OV-3 ovarian): > 100 µM
GI50 (NCI-H226 lung): 3.63 µM
TGI (NCI-H226 lung): 34.4 µM
GI50 (ACHN renal): 5.88 µM
TGI (ACHN renal): 61.1 µM
GI50 (OVCAR-4 ovarian): 6.75 µM
TGI (OVCAR-4 ovarian): > 100 µM
GI50 (MDA-MB-435): 7.6 µM
TGI (MDA-MB-435): > 26.4 µM
GI50 (786-0 renal): 6.13 µM
TGI (786-0 renal): 17.8 µM
GI50 (HCT-15 colon): 2.02 µM
TGI (HCT-15 colon): > 29.4 µM
GI50 (K-562 leukemia): 1.74 µM
TGI (K-562 leukemia): 8.19 µM
GI50 (SF-268 CNS): 9.23 µM
TGI (SF-268 CNS): 58.1 µM
GI50 (SW-620 colon): 3.78 µM
TGI (SW-620 colon): 17.2 µM
GI50 (NCI-H522 lung): 3.8 µM
TGI (NCI-H522 lung): > 53.9 µM
GI50 (U251 CNS): 3.19 µM
TGI (U251 CNS): > 34.7 µM
GI50 (HCC-2998 colon): 0.804 µM
TGI (HCC-2998 colon): 2.3 µM
GI50 (OVCAR-3 ovarian): 4.14 µM
TGI (OVCAR-3 ovarian): 15.9 µM
GI50 (A549 NSCLC): 12.1 µM
TGI (A549 NSCLC): 99 µM
GI50 (RXF 393 renal): 1.12 µM
TGI (RXF 393 renal): 2.9 µM
GI50 (MDA-MB-231 breast): 5.77 µM
TGI (MDA-MB-231 breast): > 37.9 µM
GI50 (UACC-257 melanoma): 6.76 µM
TGI (UACC-257 melanoma): 22.9 µM
GI50 (HOP-62 NSCLC): 24.6 µM
TGI (HOP-62 NSCLC): > 73.8 µM
GI50 (MALME-3M melanoma): 5.41 µM
TGI (MALME-3M melanoma): 13.7 µM
GI50 (HT29 colon): 2.81 µM
TGI (HT29 colon): 17.5 µM
GI50 (BT-549 breast): 8.16 µM
TGI (BT-549 breast): 59.3 µM
GI50 (LOX IMVI melanoma): 1.82 µM
TGI (LOX IMVI melanoma): 4.84 µM
GI50 (CCRF-CEM leukemia): 1.09 µM
TGI (CCRF-CEM leukemia): 6.69 µM
GI50 (SN12C renal): 5.69 µM
TGI (SN12C renal): 54.4 µM
GI50 (DU-145 prostate): 10.6 µM
TGI (DU-145 prostate): > 65.9 µM
GI50 (SK-MEL-2 melanoma): 5.51 µM
